# Where no end group is shown, it is not given here.
# Columns and labels:
# bacteria = conditions: repeated subcultures at one-half MIC; Steinberg et al., 1997; cited from earlier work
# [1] = system: polymicrobial flora of the oral cavity; assay: Microbicidal activity in human saliva; type: cell-based
Substance,development of resistance (bacteria),microbicidal activity in human saliva [1]
"PG-1: protegrin peptide PG-1 (RGGRLCYCRRRFCVCVGR; ends and bridges not checked; cysteine pairing not given here; UniProt P32194 131-148, looked up)",did not result in the development of resistance,
RGGLCYCRGRFCVCVGR [native IB-367],,retains its microbicidal activity
